Each structure is given as a SMILES string.

T1 sequence (P09874 whole entry): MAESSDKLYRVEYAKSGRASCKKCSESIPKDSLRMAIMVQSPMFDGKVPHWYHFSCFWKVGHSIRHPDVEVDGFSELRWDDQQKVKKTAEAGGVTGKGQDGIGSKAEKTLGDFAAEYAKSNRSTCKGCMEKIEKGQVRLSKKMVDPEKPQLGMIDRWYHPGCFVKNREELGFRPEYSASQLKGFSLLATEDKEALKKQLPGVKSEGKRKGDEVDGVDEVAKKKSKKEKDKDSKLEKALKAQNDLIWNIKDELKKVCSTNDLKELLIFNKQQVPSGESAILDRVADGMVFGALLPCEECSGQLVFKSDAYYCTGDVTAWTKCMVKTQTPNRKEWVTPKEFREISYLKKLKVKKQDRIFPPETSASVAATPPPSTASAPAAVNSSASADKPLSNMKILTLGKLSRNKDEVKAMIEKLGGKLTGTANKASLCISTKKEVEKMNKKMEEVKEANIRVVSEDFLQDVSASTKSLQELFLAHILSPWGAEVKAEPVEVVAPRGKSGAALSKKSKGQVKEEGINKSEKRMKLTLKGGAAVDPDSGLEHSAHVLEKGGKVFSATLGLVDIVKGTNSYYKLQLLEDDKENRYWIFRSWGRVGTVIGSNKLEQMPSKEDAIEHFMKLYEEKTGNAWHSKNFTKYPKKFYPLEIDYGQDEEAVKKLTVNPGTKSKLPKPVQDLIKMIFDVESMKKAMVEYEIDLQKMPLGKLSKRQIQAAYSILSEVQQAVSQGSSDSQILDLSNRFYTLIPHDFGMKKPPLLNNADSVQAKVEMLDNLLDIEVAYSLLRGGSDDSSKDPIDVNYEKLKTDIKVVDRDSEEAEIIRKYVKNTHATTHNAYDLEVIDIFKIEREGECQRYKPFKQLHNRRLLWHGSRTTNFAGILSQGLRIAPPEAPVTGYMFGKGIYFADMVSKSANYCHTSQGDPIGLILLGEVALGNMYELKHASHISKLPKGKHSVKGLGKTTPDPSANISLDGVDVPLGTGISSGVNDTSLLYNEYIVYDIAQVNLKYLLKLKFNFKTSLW
T2 sequence (Q9UGN5 whole entry, the tested form may be a part): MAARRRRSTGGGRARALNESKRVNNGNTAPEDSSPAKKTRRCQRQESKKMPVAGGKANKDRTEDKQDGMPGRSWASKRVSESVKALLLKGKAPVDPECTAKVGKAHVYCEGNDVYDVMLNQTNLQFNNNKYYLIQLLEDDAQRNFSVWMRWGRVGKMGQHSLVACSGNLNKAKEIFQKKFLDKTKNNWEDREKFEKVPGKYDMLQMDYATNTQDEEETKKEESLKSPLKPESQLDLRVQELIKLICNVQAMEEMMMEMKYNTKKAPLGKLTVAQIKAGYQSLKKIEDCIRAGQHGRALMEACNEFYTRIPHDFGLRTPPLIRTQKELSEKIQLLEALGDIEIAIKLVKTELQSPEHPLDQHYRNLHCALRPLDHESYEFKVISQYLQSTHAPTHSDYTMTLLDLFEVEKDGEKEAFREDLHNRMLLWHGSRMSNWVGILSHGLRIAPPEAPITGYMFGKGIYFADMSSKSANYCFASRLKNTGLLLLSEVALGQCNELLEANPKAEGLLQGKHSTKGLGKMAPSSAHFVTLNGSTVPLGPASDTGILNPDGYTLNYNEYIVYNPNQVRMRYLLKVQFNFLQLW

The first test addresses T1, full length N-terminally FLAG-tagged PARP1 (Homo sapiens, UniProt P09874). The test is described as follows: PARP1 probe displacement HTRF assay. Conditions: PARP1 over PARP2, ratio Kd (PARP2)/Kd (PARP1), probe displacement HTRF. A general note: Time-resolved FRET reads energy transfer from a long-lived donor to a nearby acceptor.
For `CCNC(=O)c1ccc(N2CCC(N3CCC(c4ccc(CC)c(=O)[nH]4)C3)CC2)c(F)n1` (racemic) [Compound 264rac], the Selectivity result is “+++ (+++ indicate a value of at least 100)”.

In the case of `CNC(=O)c1ccc(N2CCC(N3CCC(c4cc5c(F)ccc(F)c5c(=O)[nH]4)C3)CC2)c(F)n1` (racemic) [Compound 268rac], the Selectivity result was “+++ (+++ indicate a value of at least 100)”.

As to `CNC(=O)c1ccc(N2CCC(N3CCC(c4cc5cccc(O)c5c(=O)[nH]4)C3)CC2)cn1` (racemic) [Compound 271rac], the Selectivity entry is “+++ (+++ indicate a value of at least 100)”.

On to `Cc1n[nH]c(-c2ccc(N3CCC(N4CCC(c5nc6ccccc6c(=O)[nH]5)C4)CC3)cn2)n1` (racemic) [Compound 275rac], for which the Selectivity result is recorded as “+ (+ indicates a value of 10 to less than 50)”.

On to `CCc1ccc(C2CCN(C3CCN(c4cnc(C(=O)NC)nc4C(F)(F)F)CC3)C2)[nH]c1=O` (racemic) [Compound 278rac], for which the Selectivity result is “+++ (+++ indicate a value of at least 100)”.

For `CCc1ccc(C2CCN(C3CCN(c4ccc(C(=O)NC)c(F)c4)CC3)C2)[nH]c1=O` (racemic) [Compound 282rac], the Selectivity entry is recorded as “+ (+ indicates a value of 10 to less than 50)”.

Turning to `CNC(=O)c1ccc(N2CCC(N3CCC(c4ccc(CCO)c(=O)[nH]4)C3)CC2)cn1` (racemic) [Compound 286rac], the Selectivity result was “+++ (+++ indicate a value of at least 100)”.

For the compound `CNC(=O)c1ccc(N2CCC(N3CCC(c4nc5c(C(F)(F)F)cn(C)c5c(=O)[nH]4)C3)CC2)cn1` (racemic) [Compound 288rac], the Selectivity result is on record as “+++ (+++ indicate a value of at least 100)”.

As for `CNC(=O)c1ccc(N2CCC(N3CCC(c4nc5c(c(=O)[nH]4)CN(C)C5)C3)CC2)cn1` (racemic) [Compound 294rac], the Selectivity entry is listed as “− (− indicates a value of less than 10)”.

On to `CNC(=O)c1cc(N2CCC(N3CCC(c4cc5ccccc5c(=O)[nH]4)C3)CC2)cs1` (racemic) [Compound 296rac], for which the Selectivity result is “+ (+ indicates a value of 10 to less than 50)”.

For `O=c1[nH]c(C2CCN(C3CCN(c4nc5ccccc5[nH]4)CC3)C2)cc2ccccc12` (racemic) [Compound 297rac], the Selectivity result is listed as “− (− indicates a value of less than 10)”.

For the compound `O=c1[nH]c(C2CCN(C3CCN(c4ccc(C5=NCCN5)cc4)CC3)C2)nc2ccccc12` (racemic) [Compound 307rac], the Selectivity entry is given as “− (− indicates a value of less than 10)”.

Regarding `CNC(=O)c1cnc(N2CCC(N3CCC(c4nc5ccccc5c(=O)[nH]4)C3)CC2)nc1` (racemic) [Compound 318rac], the Selectivity entry is on record as “+ (+ indicates a value of 10 to less than 50)”.

For `CNC(=O)c1ccc(N2CCC(N3CCC(c4cc5ccccc5c(=O)[nH]4)C3)CC2)s1` (racemic) [Compound 319rac], the Selectivity entry was “− (− indicates a value of less than 10)”.

Turning to `CNC(=O)c1cnc(N2CCC(N3CCC(c4cc5ccccc5c(=O)[nH]4)C3)CC2)s1` (racemic) [Compound 320rac], the Selectivity result is recorded as “− (− indicates a value of less than 10)”.

Still in this test, the particulars now being: read-out: PARP1 HTRF; binned Kd, probe displacement HTRF.
For the compound `CCNC(=O)c1ccc(N2CCC(N3CCC(c4ccc(CC)c(=O)[nH]4)C3)CC2)c(F)n1` (racemic) [Compound 264rac], the Kd was less than 10 nM.

For the compound `CNC(=O)c1ccc(N2CCC(N3CCC(c4cc5c(F)ccc(F)c5c(=O)[nH]4)C3)CC2)c(F)n1` (racemic) [Compound 268rac], the Kd was less than 10 nM.

`CNC(=O)c1ccc(N2CCC(N3CCC(c4cc5cccc(O)c5c(=O)[nH]4)C3)CC2)cn1` (racemic) [Compound 271rac]: the Kd is less than 10 nM.

Regarding `Cc1n[nH]c(-c2ccc(N3CCC(N4CCC(c5nc6ccccc6c(=O)[nH]5)C4)CC3)cn2)n1` (racemic) [Compound 275rac], the Kd is less than 10 nM.

As to `CCc1ccc(C2CCN(C3CCN(c4cnc(C(=O)NC)nc4C(F)(F)F)CC3)C2)[nH]c1=O` (racemic) [Compound 278rac], the Kd is 10 to 100 nM.

Take `CCc1ccc(C2CCN(C3CCN(c4ccc(C(=O)NC)c(F)c4)CC3)C2)[nH]c1=O` (racemic) [Compound 282rac]: the Kd fell in the range of 10 to 100 nM.

Regarding `CNC(=O)c1ccc(N2CCC(N3CCC(c4ccc(CCO)c(=O)[nH]4)C3)CC2)cn1` (racemic) [Compound 286rac], the Kd fell in the range of 10 to 100 nM.

For the compound `CNC(=O)c1ccc(N2CCC(N3CCC(c4nc5c(C(F)(F)F)cn(C)c5c(=O)[nH]4)C3)CC2)cn1` (racemic) [Compound 288rac], the Kd lay within 10 to 100 nM.

On to `CNC(=O)c1ccc(N2CCC(N3CCC(c4nc5c(c(=O)[nH]4)CN(C)C5)C3)CC2)cn1` (racemic) [Compound 294rac], for which the Kd lay within 100 to 1000 nM.

Consider `CNC(=O)c1cc(N2CCC(N3CCC(c4cc5ccccc5c(=O)[nH]4)C3)CC2)cs1` (racemic) [Compound 296rac], for which the Kd was less than 10 nM.

For `O=c1[nH]c(C2CCN(C3CCN(c4nc5ccccc5[nH]4)CC3)C2)cc2ccccc12` (racemic) [Compound 297rac], the Kd lay in the range of 10 to 100 nM.

For `O=c1[nH]c(C2CCN(C3CCN(c4ccc(C5=NCCN5)cc4)CC3)C2)nc2ccccc12` (racemic) [Compound 307rac], the Kd lay in the range of 10 to 100 nM.

On to `CNC(=O)c1cnc(N2CCC(N3CCC(c4nc5ccccc5c(=O)[nH]4)C3)CC2)nc1` (racemic) [Compound 318rac], for which the Kd fell in the range of 10 to 100 nM.

Turning to `CNC(=O)c1ccc(N2CCC(N3CCC(c4cc5ccccc5c(=O)[nH]4)C3)CC2)s1` (racemic) [Compound 319rac], the Kd was in the range of 1000 to 10000 nM.

For the compound `CNC(=O)c1cnc(N2CCC(N3CCC(c4cc5ccccc5c(=O)[nH]4)C3)CC2)s1` (racemic) [Compound 320rac], the Kd was 100 to 1000 nM.

The next test concerns the target T2, N-terminally FLAG-tagged PARP2 (amino acids 1-583) (Homo sapiens, UniProt Q9UGN5).
T2 construct: N-terminally FLAG-tagged PARP2 (amino acids 1-583)
Put plainly: PARP2 probe displacement HTRF assay. Format: binding. Conditions: binned Kd, probe displacement HTRF. As to the method: Data analysis was performed identical as for PARP1.
For the compound `CCNC(=O)c1ccc(N2CCC(N3CCC(c4ccc(CC)c(=O)[nH]4)C3)CC2)c(F)n1` (racemic) [Compound 264rac], the Kd was 100 to 1000 nM.

Turning to `CNC(=O)c1ccc(N2CCC(N3CCC(c4cc5c(F)ccc(F)c5c(=O)[nH]4)C3)CC2)c(F)n1` (racemic) [Compound 268rac], the Kd lay in the range of 100 to 1000 nM.

The compound `CNC(=O)c1ccc(N2CCC(N3CCC(c4cc5cccc(O)c5c(=O)[nH]4)C3)CC2)cn1` (racemic) [Compound 271rac] yielded a Kd of 100 to 1000 nM.

In the case of `Cc1n[nH]c(-c2ccc(N3CCC(N4CCC(c5nc6ccccc6c(=O)[nH]5)C4)CC3)cn2)n1` (racemic) [Compound 275rac], the Kd lay within 100 to 1000 nM.

Consider `CCc1ccc(C2CCN(C3CCN(c4cnc(C(=O)NC)nc4C(F)(F)F)CC3)C2)[nH]c1=O` (racemic) [Compound 278rac], for which the Kd was more than 10000 nM.

`CCc1ccc(C2CCN(C3CCN(c4ccc(C(=O)NC)c(F)c4)CC3)C2)[nH]c1=O` (racemic) [Compound 282rac]: the Kd was in the range of 100 to 1000 nM.

Regarding `CNC(=O)c1ccc(N2CCC(N3CCC(c4ccc(CCO)c(=O)[nH]4)C3)CC2)cn1` (racemic) [Compound 286rac], the Kd is more than 10000 nM.

Regarding `CNC(=O)c1ccc(N2CCC(N3CCC(c4nc5c(C(F)(F)F)cn(C)c5c(=O)[nH]4)C3)CC2)cn1` (racemic) [Compound 288rac], the Kd lay within 1000 to 10000 nM.

The compound `CNC(=O)c1ccc(N2CCC(N3CCC(c4nc5c(c(=O)[nH]4)CN(C)C5)C3)CC2)cn1` (racemic) [Compound 294rac] registered a Kd of more than 10000 nM.

In the case of `CNC(=O)c1cc(N2CCC(N3CCC(c4cc5ccccc5c(=O)[nH]4)C3)CC2)cs1` (racemic) [Compound 296rac], the Kd was 100 to 1000 nM.

Take `O=c1[nH]c(C2CCN(C3CCN(c4nc5ccccc5[nH]4)CC3)C2)cc2ccccc12` (racemic) [Compound 297rac]: the Kd was in the range of 100 to 1000 nM.

Compound `O=c1[nH]c(C2CCN(C3CCN(c4ccc(C5=NCCN5)cc4)CC3)C2)nc2ccccc12` (racemic) [Compound 307rac] registered a Kd of 100 to 1000 nM.

`CNC(=O)c1cnc(N2CCC(N3CCC(c4nc5ccccc5c(=O)[nH]4)C3)CC2)nc1` (racemic) [Compound 318rac] had a Kd of 100 to 1000 nM.

As to `CNC(=O)c1ccc(N2CCC(N3CCC(c4cc5ccccc5c(=O)[nH]4)C3)CC2)s1` (racemic) [Compound 319rac], the Kd is 1000 to 10000 nM.

On to `CNC(=O)c1cnc(N2CCC(N3CCC(c4cc5ccccc5c(=O)[nH]4)C3)CC2)s1` (racemic) [Compound 320rac], for which the Kd is 1000 to 10000 nM.

In a further test the target is T1, full length N-terminally FLAG-tagged PARP1. Put plainly: PARP1 biochemical DELFIA assay (auto-PARylation). More on the design: recombinant full length human N-terminally FLAG-tagged PARP1. The settings on record: binned IC50, biochemical auto-PARylation assay.
For `CCNC(=O)c1ccc(N2CCC(N3CCC(c4ccc(CC)c(=O)[nH]4)C3)CC2)c(F)n1` (racemic) [Compound 264rac], the IC50 (commonly the midpoint of a concentration-inhibition curve) was less than 10 nM.

Take `CNC(=O)c1ccc(N2CCC(N3CCC(c4cc5c(F)ccc(F)c5c(=O)[nH]4)C3)CC2)c(F)n1` (racemic) [Compound 268rac]: the IC50 was less than 10 nM.

For the compound `CNC(=O)c1ccc(N2CCC(N3CCC(c4cc5cccc(O)c5c(=O)[nH]4)C3)CC2)cn1` (racemic) [Compound 271rac], the IC50 is less than 10 nM.

Turning to `Cc1n[nH]c(-c2ccc(N3CCC(N4CCC(c5nc6ccccc6c(=O)[nH]5)C4)CC3)cn2)n1` (racemic) [Compound 275rac], the IC50 is less than 10 nM.

`CCc1ccc(C2CCN(C3CCN(c4cnc(C(=O)NC)nc4C(F)(F)F)CC3)C2)[nH]c1=O` (racemic) [Compound 278rac]: the IC50 was 10 to 100 nM.

`CCc1ccc(C2CCN(C3CCN(c4ccc(C(=O)NC)c(F)c4)CC3)C2)[nH]c1=O` (racemic) [Compound 282rac]: the IC50 lay in the range of 10 to 100 nM.

On to `CNC(=O)c1ccc(N2CCC(N3CCC(c4ccc(CCO)c(=O)[nH]4)C3)CC2)cn1` (racemic) [Compound 286rac], for which the IC50 was in the range of 10 to 100 nM.

Turning to `CNC(=O)c1ccc(N2CCC(N3CCC(c4nc5c(C(F)(F)F)cn(C)c5c(=O)[nH]4)C3)CC2)cn1` (racemic) [Compound 288rac], the IC50 was in the range of 10 to 100 nM.

Consider `CNC(=O)c1ccc(N2CCC(N3CCC(c4nc5c(c(=O)[nH]4)CN(C)C5)C3)CC2)cn1` (racemic) [Compound 294rac], for which the IC50 lay within 100 to 1000 nM.

For the compound `CNC(=O)c1cc(N2CCC(N3CCC(c4cc5ccccc5c(=O)[nH]4)C3)CC2)cs1` (racemic) [Compound 296rac], the IC50 was less than 10 nM.

Consider `O=c1[nH]c(C2CCN(C3CCN(c4nc5ccccc5[nH]4)CC3)C2)cc2ccccc12` (racemic) [Compound 297rac], for which the IC50 lay in the range of 10 to 100 nM.

As for `O=c1[nH]c(C2CCN(C3CCN(c4ccc(C5=NCCN5)cc4)CC3)C2)nc2ccccc12` (racemic) [Compound 307rac], the IC50 was 10 to 100 nM.

Take `CNC(=O)c1cnc(N2CCC(N3CCC(c4nc5ccccc5c(=O)[nH]4)C3)CC2)nc1` (racemic) [Compound 318rac]: the IC50 was in the range of 10 to 100 nM.

Turning to `CNC(=O)c1ccc(N2CCC(N3CCC(c4cc5ccccc5c(=O)[nH]4)C3)CC2)s1` (racemic) [Compound 319rac], the IC50 was in the range of 1000 to 10000 nM.

As to `CNC(=O)c1cnc(N2CCC(N3CCC(c4cc5ccccc5c(=O)[nH]4)C3)CC2)s1` (racemic) [Compound 320rac], the concentration for half-maximal inhibition (IC50) lay within 100 to 1000 nM.

Values taken from patent US20250152585A1, “PHARMACEUTICAL COMPOUND” (Duke Street Bio Limited, priority 2022, published 2025).
